The values that follow come from a melting point compilation (Tetko et al.; mined from patent text by program, amines drawn as free bases though some values may be those of a salt).

Some results are limits rather than exact numbers.

In general, melting point refers to the temperature, or range, at which the solid turns liquid. As for `C[C@@H](N1CCN(S(C)(=O)=O)CC1)[C@](O)(Cn1cncn1)c1ccc(F)cc1F`, the melting point fell in the range of 83 to 85 °C.

Turning to `Cc1c(C)n(CC=Cc2ccccc2)c2c(OCc3ccc(F)cc3)nncc12`, the melting point was 124 to 126 °C.

For the molecule `CCN1CCCC1CNC(=O)c1cc([N+](=O)[O-])c(Cl)cc1OC` (stereo not drawn), the melting point was in the range of 107 to 108 °C.

Turning to `O=C(CC[C@H]1CC[C@H](Nc2ncc3ncnc(Nc4ccc(F)c(Cl)c4)c3n2)CC1)N1CCOCC1`, the melting point lay within 186 to 191 °C.

Molecule `COc1cccc(CN2CCN(CCCOc3ccc4c(C)cc(=O)[nH]c4c3)CC2)c1` registered a melting point of 149 to 150 °C.

Molecule `CC(C(=O)O)c1ccc2c(c1)CC(C(C)C)C2` (stereo not drawn) had a melting point of 90 to 91.5 °C.

Molecule `CSCCNC(=O)c1sc(-c2cccnc2)nc1Cl` came in with a melting point of 97 to 98 °C.

`COc1ccc(-c2c(Cl)c(CN3C(=O)CCC3=O)nc3sc4c(c23)CCC(O)C4)cc1` (stereo not drawn) returned a melting point of 218 to 220 °C.

For `CC(=O)Nc1ccc([N+](=O)[O-])cc1OCC1CO1` (stereo not drawn), the melting point amounted to 164 °C.

Molecule `COc1ccc(S(=O)(=O)C2(C(=O)O)CCN(Cc3ccc(C)cc3)CC2)cc1` came in with a melting point of 176 to 177 °C.

In the case of `CCCCc1oc2ccccc2c1-c1ccc(-c2ccc(O)cc2)cc1`, the melting point lay within 128 to 129 °C.

The molecule `O=c1ccc(S(=O)(=O)c2cc3ccc(F)cc3[nH]2)n[nH]1` yielded a melting point above 250 °C.

Take `CCOCOc1cc(F)ccc1-c1cc(-c2cccc([N+](=O)[O-])c2)c(C#N)c(NC(=O)c2cccs2)n1`: the melting point lay within 166 to 167 °C.

With `N#Cc1ccc(NC(=O)C(F)(F)C(F)(F)C(F)(F)F)cc1`, the melting point lay within 116 to 118 °C.

Turning to `CCC(=O)Oc1ccc(C(=O)Nc2ccc3cc(CN4CCCC4)cnc3c2C)cc1`, the melting point lay within 146 to 147 °C.

In turn, `O=c1[nH][nH]c(=O)c2c(O)c3c(Br)cccc3nc12` showed a melting point of 280 to 281 °C.

`CC(C)(C)c1cc(CCc2ccccc2NC(=O)Nc2ccccc2)cc(C(C)(C)C)c1O` came in with a melting point of 207 °C.

Turning to `CSC(=N[N+](=O)[O-])N(C)C(C)=O`, the melting point fell in the range of 40 to 41 °C.

In the case of `CCc1c(C)sc2ncnc(Cl)c12`, the melting point was in the range of 52 to 56 °C.

Molecule `Cc1nc2ccc3c(c2o1)OC(CN1CCCCC1)CO3` (stereo not drawn) had a melting point of 109 to 112 °C.

In the case of `NC(=O)c1ncn2c(-c3cccnc3)ccnc12`, the melting point is above 260 °C.

Take `COc1cc(Nc2nccc(Nc3ccc(OCc4ccccc4)cc3)n2)cc(OC)c1OC`: the melting point lay in the range of 161 to 164 °C.

The molecule `COc1ccc(C(=O)Oc2ccc(C(=O)O)cc2C(=O)O)cc1C12CC3CC(CC(C3)C1)C2` yielded a melting point of 172 to 173 °C.

`CNC(=O)c1cc2ccc(OC)cc2n1CCNC(C)=O` gave a melting point of 177 to 178 °C.

`COc1cc2ccc(C(=N)NO)cc2cc1OC` gave a melting point of 203 to 208 °C.

With `O=c1[nH]c2ccc(F)cc2c(=O)n1CCCN1CC=C(c2ccc(Cl)cc2)CC1`, the melting point lay in the range of 192 to 193 °C.

`O=C(O)[C@@H](CCN1C(=O)c2ccccc2C1=O)Oc1c(Br)cc(-c2c3ccccc3c(Br)c3sc4ccccc4c23)cc1Br` gave a melting point of 215 to 217 °C.

Molecule `CC1(C)CNC(=O)C(=O)N1c1cc(F)cc2ccoc12` returned a melting point of 162 to 165 °C.

`Cc1nn(C(C)C(=O)N(C)C)c(C)c1-c1ccccc1` (stereo not drawn) displayed a melting point of 122 to 124 °C.

The molecule `COC(=O)c1cc(Cl)c(Oc2ccc(OC)c(C(=O)c3ccc(F)cc3)c2)c(Cl)c1` displayed a melting point of 112 to 115 °C.

The molecule `CSc1ccc(-n2cnc3ccc(-c4nnc(CC(F)(F)F)o4)cc32)cc1` yielded a melting point of 190 to 192 °C.

`COC(=O)C1Oc2ccc3c(-c4ccccc4)noc3c2O1` (stereo not drawn) displayed a melting point of 78 to 80 °C.

Molecule `N#Cc1ccc(NC(=O)c2ccnc(SCc3ccc(F)cc3)c2)cc1` had a melting point of 160 to 162 °C.

The molecule `CCCCCCCNC(=O)N(C)c1cccc(-c2ccc(CCC(=O)O)c(F)c2)c1` displayed a melting point of 92 to 93 °C.

`Cn1c2ccccc2c2nc3cccc(CCl)c3nc21` returned a melting point of 204 to 206 °C.

`C#CCN1C(=O)COc2ccc(-c3ncc(C(F)(F)F)cc3Cl)cc21` gave a melting point of 136 to 137 °C.

`O=[N+]([O-])c1cc2c(Cl)ncnc2cc1F` displayed a melting point of 116 to 118 °C.

In turn, `CCN(CC)C(=O)Nc1ccc(S(=O)(=O)n2c(=O)n(-c3ccccc3Cl)c3cc(Cl)ccc32)cc1` gave a melting point of 222 °C.

In the case of `CCn1ncc2c1ncc1c(N3CCCCC3)nc3cc(C)nn3c12`, the melting point fell in the range of 176 to 177 °C.

In the case of `CCCN(c1ccccc1)S(=O)(=O)c1ccc(C(CC2CCCC2)C(=O)Nc2nc3ccc(OC)nc3s2)cc1` (stereo not drawn), the melting point is 83 to 85 °C.

Molecule `CC(C)(C)C(=O)COc1ccc(Cl)cc1` gave a melting point of 58 °C.

With `COc1ccc(C2CC(=O)N(c3ccnc(NC(=O)NCc4ccccn4)c3)C2)cc1` (stereo not drawn), the melting point is 159 to 161 °C.

With `Cc1ccccc1C(=O)CN1C(=O)C(NC(=O)Nc2cccc(-c3nnn[nH]3)c2)N=C(c2ccccc2F)c2cccc(C)c21` (stereo not drawn), the melting point fell in the range of 216 to 220 °C.

The molecule `O=C(O)CCCCCCCCNC(=O)C1Cc2ccccc2N1S(=O)(=O)c1ccc(-c2cccc(C(F)(F)F)c2)cc1` (stereo not drawn) gave a melting point of 60 °C.

In the case of `Nc1ccnn1-c1c(F)c(F)c(C(F)(F)F)c(F)c1F`, the melting point lay within 103 to 104 °C.

The molecule `CCOC(=O)c1cccc(-c2ccccc2C#N)c1` showed a melting point of 81.5 to 82 °C.

Molecule `CC(C)(C)OC(=O)CN1C(=O)[C@@H](N)[C@H](c2ccccc2)Sc2ccccc21` (relative stereo) displayed a melting point of 172 to 174 °C.

Molecule `CC(=O)Nc1nc(CO)c(Cl)s1` came in with a melting point of 145 to 146 °C.

Molecule `Cc1ccc(C(=O)C=CN(C)C)o1` came in with a melting point of 123 to 125 °C.

`O=C(Nc1ccc(C(=O)N2CCCCc3cc(Cl)ccc32)cn1)c1ccccc1OCCCCO` had a melting point of 157 to 158 °C.

With `CCOC(=O)/C(=N\OC12CCC(CC1)CC2)c1csc(N)n1`, the melting point was 139 to 140 °C.

Regarding `CN1CCC(OC2c3ccccc3CCn3cc(I)nc32)CC1` (stereo not drawn), the melting point is 126 °C.

As for `CCOC(=O)C(C)c1ccc2nc(N)sc2c1` (stereo not drawn), the melting point came out at 146 °C.

`CNC(=O)C(C)Oc1ncn(-c2cccc(C(F)(F)F)c2)n1` (stereo not drawn) returned a melting point of 137 to 139 °C.

For `O=C(NCc1ccccc1)c1ccnc(NC(=O)c2ccccc2)c1`, the melting point fell in the range of 174 to 176 °C.

In turn, `CC(=O)CN1C(=O)C(NC(=O)Nc2cccc(C)c2)N=C(C)c2cccc(C)c21` (stereo not drawn) had a melting point of 126 to 128 °C.

With `COc1cc(C(C#Cc2c(C)nc(N)nc2N)OC)cc(OC)c1OC` (stereo not drawn), the melting point was in the range of 127 to 129 °C.

Molecule `COc1ccc(NC(=O)c2ccc(F)c(F)c2)cc1NS(=O)(=O)c1cccc([N+](=O)[O-])c1` displayed a melting point of 150 to 160 °C.

With `CC12CCC3C(CC=C4CC(O)CCC43C)C1CC=C2Br` (stereo not drawn), the melting point lay within 162 to 164 °C.

`CCOC(=O)n1ccc2cc(N)ccc21` yielded a melting point of 113 to 114 °C.

As to `COc1ccc(C(=O)c2c[nH]c(=O)[nH]2)cc1OC`, the melting point was in the range of 257 to 259 °C.

Molecule `C#Cc1ncn2c1CN(C)C(=O)c1ccccc1-2` showed a melting point of 191 to 193 °C.

Regarding `COc1cc(-c2cc(C3CCOCC3)no2)cc2oc(=O)c(C)c(C)c12`, the melting point worked out at 151 °C.

Regarding `Cc1cccc(C)c1NC(=O)CN1CCN(c2ncnc3sccc23)C(C)C1` (stereo not drawn), the melting point was in the range of 184 to 185 °C.

The molecule `CC(C)(C)C(NC(=O)c1ccc(Cl)cc1)Nc1c(Nc2cnc(F)c(Br)c2)c(=O)c1=O` (stereo not drawn) came in with a melting point of 249 to 252 °C.

Consider `CCCCCS(=O)(=O)NC(=O)CCc1cc(C2CC2)nn1Cc1ccc(C(F)(F)F)cc1Cl`, for which the melting point was 152 to 154 °C.

The molecule `C=Cc1cnc2c(NC(=O)c3c(Cl)cccc3Cl)cccc2c1CC(=O)NCc1ccccn1` came in with a melting point of 194 to 195 °C.

As for `NC(=O)N(O)C1CCC(c2ccccc2)CC1` (stereo not drawn), the melting point lay within 161 to 162 °C.

The molecule `CN(C(=O)c1ccc(Cl)c(Cl)c1)C1CCN(C)C12CCCCC2` (stereo not drawn) came in with a melting point of 138 to 140 °C.

Take `COc1ccccc1C(=O)NCCc1ccc(-c2ccc(O)cc2)cc1`: the melting point is 118 °C.

`COC(=O)C(=O)Nc1ccc(Cl)cc1` returned a melting point of 162 to 164 °C.

`O=Cc1c[nH]c2c1ccc1c3cccc(F)c3[nH]c12` registered a melting point above 250 °C.

Take `C[C@@H](c1ccc(-c2ccc(F)cn2)cc1)N1CC[C@](CC(C)(C)O)(c2ccccc2)OC1=O`: the melting point is 159 to 160 °C.

`CCOC(=O)c1ccc(O)c(C#N)c1` yielded a melting point of 192 to 193 °C.

Regarding `Nc1nnc(Cc2cccc(C(F)(F)F)c2)s1`, the melting point is 174 to 176 °C.

In turn, `CN(c1cccc2cc(-c3ncc(CC#N)s3)[nH]c12)S(=O)(=O)c1cccs1` showed a melting point of 186 to 187 °C.

As for `CN1CCN(c2ccc3c(ccc4c(=O)cc(C(=O)Nc5ccc(N6CCOCC6)cc5)oc43)c2)CC1`, the melting point lay in the range of 217 to 218 °C.

For the molecule `Cn1cc(C2=C(c3c4n(c5ccccc35)CC3(CCN(C(=O)OC(C)(C)C)C3)C4)C(=O)NC2=O)c2ccccc21` (stereo not drawn), the melting point lay within 232 to 235 °C.

Regarding `c1cc2c3c(c1)CNc1ccccc1N3CC2`, the melting point fell in the range of 175 to 177 °C.

`BrCCCCOc1ccc(OCc2ccccc2)cc1` displayed a melting point of 70 to 72 °C.

The molecule `CC(C)(C)OC(=O)NCC(C(=O)OCc1ccccc1)c1ccccc1` (stereo not drawn) had a melting point of 58 to 59 °C.

Molecule `N#Cc1ccc(C(=C2CCCCC2)c2nc[nH]n2)cc1` registered a melting point of 92 to 93 °C.

In turn, `COC(=O)c1cn2c(n1)COc1ccc([N+](=O)[O-])cc1-2` registered a melting point of 270 to 272 °C.

As to `CCn1ncc2c3c4c(nc21)CCc1ccccc1-c4nn3C`, the melting point is 140 to 141 °C.

`CC(Oc1ncn(-c2ccccc2)n1)C(=O)OCc1ccccc1` (stereo not drawn) displayed a melting point of 78 to 80 °C.

`COc1cc(OC)nc(NC(=O)NS(=O)(=O)c2ccccc2S(=O)(=O)NC(=O)Nc2nc(OC)cc(OC)n2)n1` registered a melting point of 201 to 203 °C.

Take `CC(=O)Nc1ccc(OCC(F)(F)F)cc1`: the melting point fell in the range of 140 to 141 °C.

In turn, `NC(=O)c1nccn1C1Sc2ccccc2C1=O` (stereo not drawn) had a melting point of 180 °C.
